For test [1], the system named is CtMaT1. The test is described as follows: HPLC initial-rate kinetics, nonlinear regression. It counts as biochemical, Cistanche tubulosa. As to conditions: 2 mmol/L malonyl-CoA as co-substrate, 1 mmol/L DTT, 100 mmol/L potassium phosphate pH 6.0, 30 °C.
The target of test [2] is T1, MatB (Arabidopsis thaliana, UniProt Q8H151).
T1 sequence (Q8H151 1-608): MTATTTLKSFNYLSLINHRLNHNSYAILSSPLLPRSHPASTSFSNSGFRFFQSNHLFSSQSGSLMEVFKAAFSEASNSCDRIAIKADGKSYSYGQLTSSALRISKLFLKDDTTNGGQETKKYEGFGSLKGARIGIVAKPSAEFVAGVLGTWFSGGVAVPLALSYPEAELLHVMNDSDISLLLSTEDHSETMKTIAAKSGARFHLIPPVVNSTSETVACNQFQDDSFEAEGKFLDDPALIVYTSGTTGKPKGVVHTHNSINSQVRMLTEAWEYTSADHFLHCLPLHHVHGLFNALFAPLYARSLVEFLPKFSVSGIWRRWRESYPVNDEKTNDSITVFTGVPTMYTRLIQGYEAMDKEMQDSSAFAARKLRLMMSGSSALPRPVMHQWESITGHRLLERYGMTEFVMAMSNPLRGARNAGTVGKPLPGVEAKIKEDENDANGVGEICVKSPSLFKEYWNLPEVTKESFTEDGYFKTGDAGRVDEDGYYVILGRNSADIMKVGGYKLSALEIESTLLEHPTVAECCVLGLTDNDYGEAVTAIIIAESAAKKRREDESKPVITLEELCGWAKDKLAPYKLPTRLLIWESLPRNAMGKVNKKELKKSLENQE
The test is described as follows: HPLC detection of malonyl-CoA formed. It is filed as biochemical. To be noted: 1.5 mmol/L CoA, 3 mmol/L ATP, 5 mmol/L MgCl2, 1 mmol/L DTT, potassium phosphate pH 6.0, 30 °C, 12 h.

The target in test [3] is T1, MatB. As to conditions: 1.5 mmol/L CoA, 3 mmol/L ATP, 5 mmol/L MgCl2, 1 mmol/L DTT, potassium phosphate pH 6.0, 30 °C, 12 h.

For orientation: Km means the substrate concentration at which the rate is half of its maximum. Consider `OC[C@H]1O[C@@H](Oc2cc3c(O)cc(O)cc3[o+]c2-c2ccc(O)c(O)c2)[C@H](O)[C@@H](O)[C@@H]1O` [compound 1, cyanidin 3-glucoside], for which the Km in test [1] came to 685 ± 25.3 µM.
`OC[C@H]1O[C@@H](OCCc2ccc(O)cc2)[C@H](O)[C@@H](O)[C@@H]1O` [compound 2, salidroside]: the Km in test [1] amounted to 757 ± 58.2 µM.
For `O=C(O)CC(=O)O` [malonic acid], the “HPLC detection of malonyl-CoA formed” value in test [2] was “made directly from malonic acid in the presence of CoA, ATP, and MatB proteins”.
For the compound `CC(C(=O)O)C(=O)O` [methylmalonic acid], in test [3], the “HPLC detection of methylmalonyl-CoA formed” value is on record as “MatB could also conduct the synthesis of methyl-MLC”.

These data come from publication PMC11121200 (Acta Pharmaceutica Sinica. B, 2024).
